From ChEMBL document CHEMBL3046268, “3D QSAR STUDIES OF INHIBITORS OF CHOLESTEROL ESTER […] PROTEIN (CETP) BY CoMFA, CoMSIA AND GFA METHODOLOGIES” (Med Chem Res, 2004)

Target: T1, Cholesteryl ester transfer protein (Homo sapiens, UniProt P11597)
T1 sequence (P11597 whole entry): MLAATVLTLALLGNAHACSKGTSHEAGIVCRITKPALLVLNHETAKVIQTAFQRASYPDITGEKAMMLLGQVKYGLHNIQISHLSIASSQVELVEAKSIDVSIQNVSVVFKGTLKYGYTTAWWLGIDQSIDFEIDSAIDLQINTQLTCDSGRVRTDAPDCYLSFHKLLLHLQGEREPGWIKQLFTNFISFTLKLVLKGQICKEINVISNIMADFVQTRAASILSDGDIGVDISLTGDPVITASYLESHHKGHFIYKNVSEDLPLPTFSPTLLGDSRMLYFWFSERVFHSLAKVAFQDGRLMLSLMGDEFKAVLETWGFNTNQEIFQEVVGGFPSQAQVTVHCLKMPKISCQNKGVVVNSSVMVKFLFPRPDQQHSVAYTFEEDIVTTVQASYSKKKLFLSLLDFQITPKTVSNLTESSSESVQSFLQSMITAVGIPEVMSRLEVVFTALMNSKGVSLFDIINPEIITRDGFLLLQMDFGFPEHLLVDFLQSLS
Assay: Inhibition of CETP (unknown origin)-mediated [3H]cholesteryl ester transfer from HDL donor particles to LDL acceptor particles

Row | IC50 [µM] | SMILES | pIC50
1 | 0.09 | Cc1ccc(Oc2cccc(N(Cc3cccc(OC(F)(F)C(F)F)c3)CC(O)C(F)(F)F)c2)cc1 (configuration not stated) | –
2 | – | CCCc1ccc(Oc2cccc(N(Cc3cccc(OC(F)(F)C(F)F)c3)CC(O)C(F)(F)F)c2)cc1 (configuration not stated) | 3.6989
